From patent US20240051937A1, “ISOINDOLINONE AMIDE COMPOUNDS USEFUL TO TREAT DISEASES ASSOCIATED WITH GSPT1” (Monte Rosa Therapeutics, Inc., priority 2021, published 2024)

Biological target: T1, IKZF3 (Homo sapiens, UniProt Q96SW2+Q9UKT9)
T1 construct: MM1S cells were purchased from ATCC (cat. Number CRL-2974); host or cells: MM1S cells
Test: Selectivity determination by Western blot assay in MM1S cells: IKZF3
Format: cell-based
Set-up: key: A represents no degradation observed at 30 μM; B represents trace degradation at 30 μM (below 20%); C represents weak degradation at 30 μM (below 50%); D represents degradation at 30 μM (>90%); E represents degradation at 3 μM (>90%); F represents degradation at 0.3 μM (>90%)
Conditions: MM1S cells, 0.3, 3 and 30 μM, 6 hours
Experimental: MM1S cells were purchased from ATCC (cat. Number CRL-2974), sub-cultured in […] RPMI 1640 with 10% FBS, supplemented with Ix P/S and incubated at 37° C., […]. Compounds were stored as 10 mM DMSO stock. For the assay, MM1S cells (3 million cells/well) were plated in 6-well plates and incubated over night. Cells were treated with respective compounds using a serial dilution: 0.3 μM, 3 μM and 30 μM as well as a vehicle only (DMSO) control for 6 hours. Media with suspension cells was subsequently transferred to 15 mL conical tubes, wells rinsed twice with ice-cold PBS and merged with cell suspension in respective 15 mL conical tube. Cells were spinned down, supernatant aspirated, pellets resuspended in ice-cold PBS and transferred to microtubes. Cells were spinned down, supernatant aspirated and pellets resuspended in 120 μL RIPA lysis buffer supplemented with protease and phosphatase inhibitors. Cell lysates were incubated on ice for 20 minutes followed by centrifugation at >20,000×g for 5 min. Supernatants were transferred to fresh microtubes and stored at −80° C. Total protein concentration was determined using a BCA assay with a BSA standard curve and concentration of all samples was adjusted to 1 mg/mL. […] Chemiluminescence signals were then detected using a LAS-4000 system with default settings and signals quantified using Image Studio Lite software (version 5.2). […]

T1 sequence (Q9UKT9 whole entry): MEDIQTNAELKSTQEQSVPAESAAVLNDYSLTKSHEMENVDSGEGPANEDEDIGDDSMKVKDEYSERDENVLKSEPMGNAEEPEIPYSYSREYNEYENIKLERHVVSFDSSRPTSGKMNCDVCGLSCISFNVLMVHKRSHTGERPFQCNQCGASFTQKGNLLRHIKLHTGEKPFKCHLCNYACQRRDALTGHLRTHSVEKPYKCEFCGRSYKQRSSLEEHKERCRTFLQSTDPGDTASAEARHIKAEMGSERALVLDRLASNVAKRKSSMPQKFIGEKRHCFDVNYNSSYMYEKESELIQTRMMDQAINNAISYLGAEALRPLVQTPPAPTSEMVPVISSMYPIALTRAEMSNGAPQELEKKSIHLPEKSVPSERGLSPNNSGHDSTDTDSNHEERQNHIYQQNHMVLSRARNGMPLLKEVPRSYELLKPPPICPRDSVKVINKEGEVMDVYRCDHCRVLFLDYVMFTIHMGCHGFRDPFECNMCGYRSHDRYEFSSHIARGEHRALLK
T1 sequence (Q96SW2 whole entry): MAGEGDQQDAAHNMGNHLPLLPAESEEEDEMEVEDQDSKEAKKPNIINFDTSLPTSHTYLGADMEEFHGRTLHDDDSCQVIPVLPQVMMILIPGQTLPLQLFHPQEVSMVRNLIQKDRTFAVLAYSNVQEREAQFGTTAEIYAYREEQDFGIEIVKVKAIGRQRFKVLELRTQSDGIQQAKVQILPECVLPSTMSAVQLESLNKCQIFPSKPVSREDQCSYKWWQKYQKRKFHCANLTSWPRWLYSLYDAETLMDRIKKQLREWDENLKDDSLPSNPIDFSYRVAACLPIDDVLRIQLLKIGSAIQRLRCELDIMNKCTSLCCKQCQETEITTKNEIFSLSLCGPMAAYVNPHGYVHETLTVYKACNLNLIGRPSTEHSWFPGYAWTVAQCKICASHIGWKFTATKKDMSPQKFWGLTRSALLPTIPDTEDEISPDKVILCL
T1 sequence (Q16531 whole entry partner): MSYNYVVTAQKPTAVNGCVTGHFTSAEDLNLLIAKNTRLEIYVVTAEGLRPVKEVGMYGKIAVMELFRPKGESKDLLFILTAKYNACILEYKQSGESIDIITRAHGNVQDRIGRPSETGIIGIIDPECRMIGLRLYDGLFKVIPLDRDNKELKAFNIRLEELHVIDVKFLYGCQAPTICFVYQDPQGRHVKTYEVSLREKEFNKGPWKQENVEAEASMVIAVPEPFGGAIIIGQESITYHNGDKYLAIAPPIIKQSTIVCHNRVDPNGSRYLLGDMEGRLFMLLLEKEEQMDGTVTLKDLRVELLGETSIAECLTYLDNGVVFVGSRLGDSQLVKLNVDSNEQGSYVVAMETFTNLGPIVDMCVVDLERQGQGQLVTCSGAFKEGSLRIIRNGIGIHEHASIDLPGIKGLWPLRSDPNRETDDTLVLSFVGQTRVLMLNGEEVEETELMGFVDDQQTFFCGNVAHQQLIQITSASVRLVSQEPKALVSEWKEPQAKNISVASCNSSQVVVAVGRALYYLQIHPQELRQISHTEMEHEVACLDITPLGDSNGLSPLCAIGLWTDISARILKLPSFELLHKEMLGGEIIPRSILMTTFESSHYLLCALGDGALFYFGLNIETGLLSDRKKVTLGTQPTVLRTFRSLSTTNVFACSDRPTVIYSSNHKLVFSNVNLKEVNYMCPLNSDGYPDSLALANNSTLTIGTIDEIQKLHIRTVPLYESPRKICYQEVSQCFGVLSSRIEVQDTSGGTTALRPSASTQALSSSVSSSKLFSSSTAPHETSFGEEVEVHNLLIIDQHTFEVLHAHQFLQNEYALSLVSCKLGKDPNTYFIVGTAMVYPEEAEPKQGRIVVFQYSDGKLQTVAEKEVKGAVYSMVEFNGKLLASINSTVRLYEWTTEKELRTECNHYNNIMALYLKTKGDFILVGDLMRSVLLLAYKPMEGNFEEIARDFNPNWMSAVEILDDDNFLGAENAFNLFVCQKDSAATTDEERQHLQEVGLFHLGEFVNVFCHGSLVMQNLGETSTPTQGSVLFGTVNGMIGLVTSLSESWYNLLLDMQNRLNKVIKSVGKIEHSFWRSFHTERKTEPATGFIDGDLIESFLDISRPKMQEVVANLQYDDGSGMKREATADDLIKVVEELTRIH

| SMILES | IKZF3 degradation code |
| --- | --- |
| Cc1ccc(NC(=O)CCc2ccc3c(c2)C(=O)N(C2CCC(=O)NC2=O)C3)cc1Cl (centres unmarked) [Compound 1] | A |
| Cc1c(Cl)cc(NC(=O)CCc2ccc3c(c2)C(=O)N(C2CCC(=O)NC2=O)C3)cc1CN1CCOCC1 (centres unmarked) [Compound 2] | C (C represents weak degradation at 30 μM (below 50%)) |
